# Experimental data as given in patent US9464092B2, “Transient protection of normal cells during chemotherapy” (G1 Therapeutics, Inc., priority 2013, dated 2016).
# Legend:
# [1] = tested on: 456 (395 non-mutant) kinases; assay: DiscoveRx KINOMEscan kinase profiling; type: binding; conditions: 1000 nM
# Method: The compound was screened using a single concentration of 1000 nM (>1000 times the 1050 on Cdk4). Results from this screen confirmed the high potency against Cdk4 and high selectivity versus Cdk2.
# [2] = tested on: hematopoietic cells (bone marrow); assay: EdU incorporation in hematopoietic cell lineages of C57Bl/6 mice; type: in vivo; conditions: 150 mg/kg oral gavage, 12 hours
# Method: Ten-hours later, all mice were given a single i.p. injection of 100 mcg EdU (5-ethynyl-2′-deoxyuridine) to label cells in S-phase of the cell cycle. All treated mice were euthanized 2 hours after EdU injection, bone marrow cells were harvested and processed for flow cytometric analysis of EdU-incorporation (FIG. 13).
# [3] = tested on: tHS68 cells (CDK4/6-dependent cell line); assay: Cell cycle arrest by propidium iodide flow cytometry, tHS68; type: cell-based, human; conditions: 300 nM, 24 hours
# Excerpt: (§1) To test the ability of Cdk4/6 inhibitors to induce a clean G1-arrest, a cell based screening method was used consisting of two Cdk4/6-dependent cell lines (tHS68 and WM2664; Rb-positive) and one Cdk4/6-independent (A2058; Rb-negative) cell line. […] At the conclusion of the experiment, cells were harvested, fixed, and stained with propidium iodide (a DNA intercalator), which fluoresces strongly red (emission maximum 637 nm) when excited by 488 nm light. Samples were run on Dako Cyan flow cytometer and >10,000 events were collected for each sample. Data were analyzed using FlowJo 2.2 software developed by TreeStar, Inc.
# [4] = tested on: WM2664 cells (CDK4/6-dependent cell line); assay: Cell cycle arrest by propidium iodide flow cytometry, WM2664; type: cell-based; conditions: 300 nM, 24 hours
# Excerpt: as §1
# [5] = tested on: A2058 cells (CDK4/6-independent cell line); assay: Cell cycle arrest by propidium iodide flow cytometry, A2058; type: cell-based, human; conditions: 300 nM, 24 hours
# Excerpt: as §1
# [6] = tested on: Rb phosphorylation at Ser780 and Ser807/811; assay: Rb phosphorylation western blot; type: cell-based; conditions: 300 nM
# Method: The Cdk4/6-cyclin D complex is essential for progression from G1 to the S-phase of the DNA cell cycle. This complex phosphorylates the retinoblastoma tumor suppressor protein (Rb). […] Samples were lysed and protein was assayed by western blot analysis. Rb phosphorylation was measured at two sites targeted by the Cdk4/6-cyclin D complex, Ser780 and Ser807/811 using species specific antibodies.
# [7] = tested on: telomerized human diploid fibroblasts (tHDFs); assay: γ-H2AX DNA damage assay in tHDF cells with chemotherapy; type: cell-based; conditions: pretreatment before carboplatin, doxorubicin, etoposide, camptothecin or paclitaxel
# Method: (§2) Cell survival was determined by Cell TiterGlo assay per manufacturer's recommendations. For both γ-H2AX and caspase 3/7 assays, cells were plated and allowed to become adherent for 24 hours. […] For γ-H2AX, cells were harvested for analysis 8 hours after chemotherapy exposure. For the γ-H2AX assay, cells were fixed, permeabilized, and stained with anti-γ-H2AX as per the γ-H2AX Flow Kit (Millipore) and quantitated by flow cytometry. Data was analyzed using FlowJo 2.2 software developed by TreeStar, Inc. For the in vitro caspase 3/7 assay, cells were harvested 24 hours post chemotherapy treatment. Caspase 3/7 activation was measured using the Caspase-Glo® 3/7 Assay System (Promega) per manufacturer's recommendations.
# [8] = tested on: telomerized human diploid fibroblasts (tHDFs); assay: Caspase 3/7 activation in tHDF cells with chemotherapy; type: cell-based; conditions: pretreatment before carboplatin, doxorubicin, etoposide, camptothecin, and paclitaxel
# Method: as §2
# blood cell counts [9] = assay: 5FU-induced myelosuppression, single dose; type: in vivo, FVB/n female mice; conditions: 150 mg/kg oral, 30 minutes before 5FU 150 mg/kg i.p.
# Method: Complete blood cell counts were measured every two days starting on day six.
# blood cell counts [10] = assay: 5FU-induced myelosuppression, repeated cycles; type: in vivo, C57Bl/6 mice; conditions: 150 mg/kg oral before 5FU 150 mg/kg i.p., every 21 days for 3 cycles
# Excerpt: This was repeated every 21 days for 3 cycles. Blood samples were taken for hematology analysis on Day 10 of Cycles 1-3.
# [11] = tested on: human renal proximal tubule cells; assay: DNA cell cycle analysis in human renal proximal tubule cells; type: cell-based; conditions: 24 hours, dose dependent
# Excerpt: To test the ability of Cdk4/6 inhibitors to induce a clean G1-arrest in non-hematopoietic cells, G1 arrest was examined in human renal proximal tubule cells. […] At the conclusion of the experiment, cells were harvested, fixed, and stained with propidium iodide (a DNA intercalator), which fluoresces strongly red (emission maximum 637 nm) when excited by 488 nm light. Samples were run on Dako Cyan flow cytometer.
# [12] = tested on: human renal proximal tubule cells; assay: γ-H2AX assay in renal proximal tubule cells with cisplatin; type: cell-based; conditions: 10 nM-1 uM with 25 uM cisplatin
# Method: (§3) Normal renal proximal tubule epithelial cells were obtained from American Type Culture Collection (ATCC, Manassas, Va.). Cells were grown in an incubator at 37° C. in a humidified atmosphere of 5% CO2 in Renal Epithelial Cell Basal Media (ATCC) supplemented with Renal Epithelial Cell Growth Kit (ATCC) in 37° C. humidified incubator. […] For the γ-H2AX assay, cells were fixed, permeabilized, and stained with anti-γ-H2AX as per the γ-H2AX Flow Kit (Millipore) and quantitated by flow cytometry. Data was analyzed using FlowJo 2.2 software developed by TreeStar, Inc. Caspase 3/7 activation was measured using the Caspase-Glo 3/7 Assay System (Promega, Madison, Wis.) by following the manufacturer's instructions.
# [13] = tested on: renal proximal tubule epithelial cells; assay: Caspase 3/7 activation in renal proximal tubule epithelial cells with cisplatin; type: cell-based, human; conditions: 30 nM-1 uM with cisplatin 25 uM, 50 uM, or 100 uM
# Method: Normal renal proximal tubule epithelial cells were obtained from American Type Culture Collection (ATCC, Manassas, Va.). Cells were grown in an incubator at 37° C. in a humidified atmosphere of 5% CO2 in Renal Epithelial Cell Basal Media (ATCC) supplemented with Renal Epithelial Cell Growth Kit (ATCC) in 37° C. humidified incubator. […] Caspase 3/7 activation was measured 24 hours later using the Caspase-Glo 3/7 Assay System (Promega, Madison, Wis.) by following the manufacturer's instructions.
# as §3
# [14] = tested on: RB-negative SCLC cell lines (H69, H82, H209, H345, NCI417, or SHP-77); assay: EdU proliferation, RB-negative SCLC cell lines; conditions: 24 hours
# [15] = tested on: RB-intact, Cdk4/6-dependent cell line (WM2664 or tHS68); assay: EdU proliferation, RB-intact Cdk4/6-dependent cell line; conditions: 24 hours
smiles,measurement,setting,value
CN1CCN(c2ccc(Nc3ncc4cc5n(c4n3)C3(CCCCC3)CNC5=O)nc2)CC1 [Compound T],number of 395 non-mutant kinases inhibited,[1]; inhibitory threshold of 65%,92
same,percent of 395 non-mutant kinases inhibited,[1]; inhibitory threshold of 65%,23.3%
same,number of 395 non-mutant kinases inhibited,[1]; inhibitory threshold of 90%,31
same,percent of 395 non-mutant kinases inhibited,[1]; inhibitory threshold of 90%,7.8%
same,number of 395 non-mutant kinases inhibited,[1]; inhibitory threshold of 99%,6
same,percent of 395 non-mutant kinases inhibited,[1]; inhibitory threshold of 99%,1.5%
same,"inhibition of hematopoietic stem cells (HSC), EdU",[2],74%
same,"inhibition of multipotent progenitors (MPP), EdU",[2],90%
same,"reduction in EdU+ cell frequency, B cell progenitors",[2],> 80%
same,"reduction in EdU+ cell frequency, Mac1+G1+ myeloid cells",[2],46%
same,"reduction in EdU+ cell frequency, T cell progenitors",[2],> 99%
same,"reduction in EdU+ cell frequency, Ter119+ erythroid cells",[2],58%
same,"reduction in EdU+ cell frequency, lineage restricted myeloid (CMP, GMP and MEP) and lymphoid progenitors (CLP)",[2],76-92%
same,reduction of EdU+ cell frequency in unfractionated whole bone marrow cells,[2],~70%
same,effect on S-phase peak,[3],causes a loss of the S-phase peak
same,effect on S-phase peak,[4],causes a loss of the S-phase peak
same,effect on S-phase peak,[5],does not cause a loss of the S-phase peak
same,time post exposure by which Rb phosphorylation is blocked,"[6]; Rb-dependent cell lines (tHS68, WM2664)",≤ 16 h
same,effect on Rb phosphorylation,[6]; Rb-independent cells (A2058),no effect
same,DNA damage as measured by γ-H2AX formation,[7],attenuated DNA damage
same,caspase 3/7 activation,[8],robust decrease in caspase 3/7 activation in a dose-dependent manner
same,blood cell counts on day 14 after 5FU,blood cell counts [9],significant protection of each cell type at Day 14
same,recovery of hematopoietic cell lineages after 5FU,blood cell counts [9],more rapid recovery
same,myelosuppression after repeated 5FU cycles,blood cell counts [10],reduced the myelosuppression on Day 10 of the third cycle
same,G1 cell cycle arrest,[11],robust G1 cell cycle arrest
same,DNA damage as measured by γ-H2AX formation,[12],attenuated DNA damage
same,caspase 3/7 activation,[13],dose-dependent reduction in caspase 3/7 activation
same,"effect on proliferation (EdU, percent of cells in S-phase)",[14],does not affect the growth of the Rb-negative cell lines
same,"effect on proliferation (EdU, percent of cells in S-phase)",[15],inhibits the Rb-positive cell line (tHS68)
